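Dose response: 5 concentrations. Exposure: 48 h. Format: 96-well plates. Endpoint: linear interpolation; highest concentration if not reached. TGI marks complete inhibition of growth.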
What was measured:
Test in all cases: NCI-60 cell line screen, 48 h
[1] = test system: SF-295 CNS
[2] = test system: SK-MEL-28 melanoma
[3] = test system: SN12C renal
[4] = test system: MALME-3M melanoma
[5] = test system: OVCAR-4 ovarian
[6] = test system: LXFL 529 NSCLC
[7] = test system: M14 melanoma
[8] = test system: OVCAR-8 ovarian
[9] = test system: COLO 205 colon
[10] = test system: UACC-62 melanoma
[11] = test system: SK-MEL-2 melanoma
[12] = test system: DLD-1 colon
[13] = test system: NCI-H460 lung
[14] = test system: ACHN renal
[15] = test system: MOLT-4 leukemia
[16] = test system: SW-620 colon
[17] = test system: SNB-78 CNS
[18] = test system: HOP-18 NSCLC
[19] = test system: HCC-2998 colon
[20] = test system: HCT-116 colon
[21] = test system: KM12 colon
[22] = test system: SK-MEL-5 melanoma
[23] = test system: NCI-H23 lung
[24] = test system: 786-0 renal
[25] = test system: UO-31 renal
[26] = test system: EKVX NSCLC
[27] = test system: SNB-19 CNS
[28] = test system: RPMI-8226 leukemia
[29] = test system: U251 CNS
[30] = test system: SK-OV-3 ovarian
[31] = test system: OVCAR-5 ovarian
[32] = test system: RXF 393 renal
[33] = test system: UACC-257 melanoma
[34] = test system: SF-268 CNS
[35] = test system: NCI-H522 lung
[36] = test system: A498 renal
[37] = test system: SR leukemia
[38] = test system: HOP-62 NSCLC
[39] = test system: IGROV1 ovarian
[40] = test system: HCT-15 colon
[41] = test system: KM20L2 colon
[42] = test system: TK-10 renal
[43] = test system: K-562 leukemia
[44] = test system: DMS 273 small cell lung
[45] = test system: A549 NSCLC
[46] = test system: CAKI-1 renal
[47] = test system: M19-MEL melanoma
[48] = test system: SNB-75 CNS
[49] = test system: HOP-92 NSCLC
[50] = test system: HT29 colon
[51] = test system: NCI-H226 lung
[52] = test system: SF-539 CNS
[53] = test system: LOX IMVI melanoma
[54] = test system: OVCAR-3 ovarian
[55] = test system: DMS 114 small cell lung
[56] = test system: CCRF-CEM leukemia
[57] = test system: HL-60(TB) leukemia

In the case of `O=[N+]([O-])c1ccc(C2=NN(c3ccccc3)C[N+](c3ccc(Br)cc3)=N2)cc1`, the TGI [1] is reported as > 100 µM, the TGI [2] is reported as > 100 µM and the TGI [3] is reported as > 100 µM. The TGI [4] was > 100 µM, the TGI [5] was > 100 µM and the TGI [6] was > 100 µM. For the same compound, the TGI [7] was > 100 µM, the TGI [8] was > 100 µM and the TGI [9] was > 100 µM. The TGI [10] was > 100 µM, the TGI [11] was > 100 µM and the TGI [12] was > 100 µM. For the same compound, the TGI [13] was > 100 µM, the TGI [14] was > 100 µM and the TGI [15] was > 100 µM. The TGI [16] was > 100 µM, the TGI [17] was > 100 µM and the TGI [18] was > 100 µM. For the same compound, the TGI [19] was > 100 µM, the TGI [20] was > 100 µM and the TGI [21] was > 100 µM. For the same compound, the TGI [22] was > 100 µM, the TGI [23] was > 100 µM and the TGI [24] was > 100 µM. For the same compound, the TGI [25] was > 100 µM, the TGI [26] was > 100 µM and the TGI [27] was > 100 µM. For the same compound, the TGI [28] was > 100 µM, the TGI [29] was > 100 µM and the TGI [30] was > 100 µM. The TGI [31] was > 100 µM, the TGI [32] was 79.8 µM and the TGI [33] was > 100 µM. The TGI [34] was > 100 µM, the TGI [35] was > 100 µM and the TGI [36] was > 100 µM. The TGI [37] was > 100 µM, the TGI [38] was > 100 µM and the TGI [39] was > 100 µM. For the same compound, the TGI [40] was > 100 µM, the TGI [41] was > 100 µM and the TGI [42] was > 100 µM. The TGI [43] was > 100 µM, the TGI [44] was > 100 µM and the TGI [45] was > 100 µM. The TGI [46] was > 100 µM, the TGI [47] was > 100 µM and the TGI [48] was > 100 µM. For the same compound, the TGI [49] was > 100 µM, the TGI [50] was > 100 µM and the TGI [51] was > 100 µM. For the same compound, the TGI [52] was > 100 µM.

In the case of `COc1ccc(C2=C3c4cc(OC)c(OC)cc4CCN3C(=S)SS2)cc1OC`, the TGI [1] is reported as > 100 µM, the TGI [2] is reported as > 100 µM and the TGI [3] is reported as > 100 µM. The TGI [4] was 97.6 µM, the TGI [5] was > 100 µM and the TGI [6] was > 100 µM. The TGI [7] was > 100 µM, the TGI [8] was > 100 µM and the TGI [53] was > 100 µM. The TGI [9] was > 100 µM, the TGI [10] was > 100 µM and the TGI [11] was > 100 µM. The TGI [12] was > 100 µM, the TGI [13] was > 100 µM and the TGI [14] was > 100 µM. For the same compound, the TGI [15] was > 100 µM, the TGI [16] was > 100 µM and the TGI [17] was > 100 µM. The TGI [18] was > 100 µM, the TGI [54] was > 100 µM and the TGI [19] was > 100 µM. For the same compound, the TGI [20] was > 100 µM, the TGI [21] was > 100 µM and the TGI [22] was > 100 µM. For the same compound, the TGI [23] was > 100 µM, the TGI [24] was > 100 µM and the TGI [25] was > 100 µM. For the same compound, the TGI [26] was > 100 µM, the TGI [27] was > 100 µM and the TGI [28] was > 100 µM. For the same compound, the TGI [29] was > 100 µM, the TGI [30] was > 100 µM and the TGI [31] was > 100 µM. The TGI [32] was > 100 µM, the TGI [33] was > 100 µM and the TGI [34] was > 100 µM. The TGI [35] was > 100 µM, the TGI [36] was > 100 µM and the TGI [38] was > 100 µM. The TGI [39] was > 100 µM, the TGI [40] was > 100 µM and the TGI [41] was > 100 µM. For the same compound, the TGI [42] was > 100 µM, the TGI [55] was > 100 µM and the TGI [43] was > 100 µM. For the same compound, the TGI [44] was > 100 µM, the TGI [45] was > 100 µM and the TGI [46] was > 100 µM. For the same compound, the TGI [47] was > 100 µM, the TGI [48] was > 100 µM and the TGI [56] was > 100 µM. For the same compound, the TGI [57] was > 100 µM, the TGI [49] was > 100 µM and the TGI [50] was > 100 µM. The TGI [51] was > 100 µM and the TGI [52] was > 100 µM.

With `COc1ccc(C2[C@H]3C(=O)N(c4ccc(Cc5ccc(N6C(=O)[C@@H]7ON(c8ccccc8)C(c8ccc(OC)cc8)[C@@H]7C6=O)cc5)cc4)C(=O)[C@H]3ON2c2ccccc2)cc1` (some centres not stated) the TGI [1] was > 100 µM, the TGI [2] was > 100 µM and the TGI [3] was > 100 µM. For the same compound, the TGI [4] was > 100 µM, the TGI [5] was > 100 µM and the TGI [6] was > 100 µM. For the same compound, the TGI [7] was 84.7 µM, the TGI [8] was > 100 µM and the TGI [53] was > 100 µM. For the same compound, the TGI [9] was > 100 µM, the TGI [10] was > 100 µM and the TGI [11] was > 100 µM. The TGI [12] was > 100 µM, the TGI [13] was > 100 µM and the TGI [14] was > 100 µM. The TGI [15] was > 100 µM, the TGI [16] was > 100 µM and the TGI [17] was > 100 µM. For the same compound, the TGI [18] was > 100 µM, the TGI [54] was > 100 µM and the TGI [19] was > 100 µM. The TGI [20] was > 100 µM, the TGI [21] was > 100 µM and the TGI [22] was > 100 µM. For the same compound, the TGI [23] was > 100 µM, the TGI [24] was > 100 µM and the TGI [25] was > 100 µM. For the same compound, the TGI [26] was > 100 µM, the TGI [27] was > 100 µM and the TGI [28] was > 100 µM. For the same compound, the TGI [29] was > 100 µM, the TGI [30] was > 100 µM and the TGI [31] was > 100 µM. For the same compound, the TGI [32] was > 100 µM, the TGI [33] was > 100 µM and the TGI [34] was > 100 µM. The TGI [35] was > 100 µM, the TGI [36] was > 100 µM and the TGI [37] was > 100 µM. For the same compound, the TGI [38] was > 100 µM, the TGI [39] was > 100 µM and the TGI [40] was > 100 µM. The TGI [41] was > 100 µM, the TGI [42] was > 100 µM and the TGI [43] was > 100 µM. For the same compound, the TGI [44] was > 100 µM, the TGI [45] was > 100 µM and the TGI [46] was > 100 µM. For the same compound, the TGI [47] was > 100 µM, the TGI [48] was > 100 µM and the TGI [56] was > 100 µM. For the same compound, the TGI [57] was > 100 µM, the TGI [49] was > 100 µM and the TGI [50] was > 100 µM. For the same compound, the TGI [51] was > 100 µM and the TGI [52] was > 100 µM.

In the case of `Nc1cc(-c2ccccc2)nn1-c1nsc2ccccc12`, the TGI [2] is reported as > 100 µM, the TGI [3] is reported as > 100 µM and the TGI [5] is reported as > 100 µM. The TGI [6] was > 100 µM, the TGI [7] was > 100 µM and the TGI [8] was > 100 µM. For the same compound, the TGI [53] was > 100 µM, the TGI [9] was > 100 µM and the TGI [10] was > 100 µM. For the same compound, the TGI [11] was > 100 µM, the TGI [13] was > 100 µM and the TGI [14] was > 100 µM. The TGI [15] was > 100 µM, the TGI [16] was > 100 µM and the TGI [17] was > 100 µM. The TGI [18] was > 100 µM, the TGI [54] was > 100 µM and the TGI [19] was > 100 µM. The TGI [20] was > 100 µM, the TGI [21] was > 100 µM and the TGI [22] was > 100 µM. The TGI [23] was > 100 µM, the TGI [25] was > 100 µM and the TGI [26] was > 100 µM. The TGI [27] was > 100 µM, the TGI [28] was > 100 µM and the TGI [29] was > 100 µM. The TGI [31] was > 100 µM, the TGI [32] was 61.7 µM and the TGI [33] was > 100 µM. The TGI [34] was > 100 µM, the TGI [37] was > 100 µM and the TGI [38] was > 100 µM. For the same compound, the TGI [39] was > 100 µM, the TGI [40] was > 100 µM and the TGI [41] was > 100 µM. The TGI [42] was > 100 µM, the TGI [55] was > 100 µM and the TGI [43] was > 100 µM. For the same compound, the TGI [44] was > 100 µM, the TGI [45] was > 100 µM and the TGI [47] was > 100 µM. The TGI [48] was 56.9 µM, the TGI [56] was 62.3 µM and the TGI [57] was > 100 µM. For the same compound, the TGI [49] was > 100 µM, the TGI [50] was > 100 µM and the TGI [52] was > 100 µM.

— PubChem BioAssay (NCI)
